From patent US20070027175A1, “Antineoplastic activities of ellipticine and its derivatives” (priority 2005, published 2007)

What was measured:
Format in all cases: cell-based, human
[1] = system: 8226/Dox1V cells; assay: Drug resistance and cytotoxicity MTT assay, 8226/Dox1V
Description: (§1) FIGS. 13A-13B show dose response of RPMI 8226 and 8226/Dox1V myeloma cells to EPED3 (FIG. 13A) or Dox (FIG. 13B). Cells were incubated for 96 hours with drug concentrations as indicated and analyzed by MTT assays; linear regression analysis was used to determine the IC50 for each drug (EPED3, FIG. 13A; Dox, FIG. 13B) and each cell line (RPMI8226, squares; 8226/Dox1V, circles). Data are presented as the mean of four independent experiments.
The 8226/Dox1V cell line was established by chronic exposure to Dox in presence of P-glycoprotein inhibitor, verapamil and was characterized by reduced expression and activity of topo II (Futscher et al., 1993).
(§2) The 8226/Dox1V and its parental line, RPMI 8226, cells were plated in 96-well plates at 10,000 cells/well and incubated with serial dilutions of EPED3 or Dox, as previously described (Landowski et al., 1999). After 96 hours incubation at 37° C., MTT was added to each well at a final concentration of 20 μg/ml and incubated an additional 4 hours. Plates were centrifuged and the media replaced with 0.1 ml DMSO to solublize the formazan complex. Optical density was measured at 540 nm using a Bio-Tek microplate spectrophotometer. IC50 values were calculated by linear regression analysis (Origins® Software Technologies, Inc.) of the log-linear plot for percent survival versus log drug concentration.
In drug resistance studies, the efficacy of EPED3 with 8226/Dox1V cells and the parental line, RPMI 8226 cells was investigated. Both cell lines were treated with either EPED3 or Dox, and the MTT assays were used to assess cell growth. Linear regression analysis of 96-hour dose-response curves was used to compare cytotoxicity of EPED3 in 8226/Dox1V and RPMI 8226 cell lines.

[2] = system: RPMI 8226 cells; assay: Drug resistance and cytotoxicity MTT assay, RPMI 8226; conditions: Homo sapiens, 96 hours
Description: as §1, §2
In drug resistance studies, the efficacy of EPED3 with 8226/Dox1V cells and the parental line, RPMI 8226 cells was investigated. Both cell lines were treated with either EPED3 or Dox, and the MTT assays were used to assess cell growth. […]

[3] = system: 12 myeloma cell lines (Ark, BW288, CAG, Delta47, DF15, JJN3, kms11, L363, opm2, RPMI8226, U266 and XG1); assay: Comparative study with existing anti-myeloma drugs (CellTiter-Glo); conditions: 0.2 μM; in 5 days
From the text: The results obtained from these controls are pooled together in the figure (●). The dose of each compound was set […].
Comparative study of NSC 338258 with existing anti-myeloma drugs Myeloma cell lines were exposed to NSC 338258 and existing anti myeloma drugs, Adriamycin® (Doxorubicin Hydrochloride) and Etoposide (VP-16-213) in ninety six well culture plates. The concentration of each compound was set […]. […] The cell growth was near zero in the following days (day 4 onwards; FIG. 6). It was also observed that 12 myeloma cell lines (Ark, BW288, CAG, Delta47, DF15, JJN3, kms11, L363, opm2, RPMI8226, U266 and XG1) responded to the same dosage (0.2 μM) of NSC 338258, VP-16-213 and Adriamycin in 5 days.

In the case of `COc1cccc2c1C(=O)c1c(O)c3c(c(O)c1C2=O)C[C@@](O)(C(=O)CO)C[C@@H]3O[C@H]1C[C@H](N)[C@H](O)[C@H](C)O1` [Dox, Doxorubicin, reference compound], the IC50 ([1]; Homo sapiens, 8226/Dox1V, 96 hours) is reported as 294 nM, the “resistance of 8226/Dox1V versus parental RPMI 8226” value ([1]; ratio of IC50, 96 hours) is reported as 7.3 fold and the IC50 [2] is reported as 40 nM. The “response of 12 myeloma cell lines” value [3] was “responded”.
